Tests used:
Assay type in all cases: physicochemical
[1] = Stability of crystal forms of Compound A kept dry at room temperature; settings: Kept dry at room temperature for 14 d
[2] = Slurry competition experiments of crystal forms of Compound A at room temperature
Text: 2. Room temperature competition experiment between Crystal form I and Crystal forms II, III, IV of Compound A, examining the stability of the crystal forms in solvents such as water, ethanol, and water:ethanol (1:1) at room temperature, see Table 2 for details.

[3] = Chemical stability of Crystal form IV of Compound A (influencing factors: high temperature, light exposure, high humidity)
Text: A sample was investigated under the conditions and sampling time points shown in Table 4 below for influencing factors, and the results are shown in Table 5 below.

[4] = High humidity (92.5% RH), unsealed, 10 d
[5] = High humidity (92.5% RH), unsealed, 60 d
[6] = High temperature, unsealed, 40° C., 10 d
[7] = High temperature, unsealed, 40° C., 60 d
[8] = High temperature, unsealed, 60° C., 10 d
[9] = High temperature, unsealed, 60° C., 60 d

## CS(=O)(=O)n1cc2c(n1)CN([C@@H]1C[C@H](N)[C@@H](c3cc(F)ccc3F)O[C@@H]1C(F)(F)F)C2 [Crystal form II, (2R,3S,5R,6S)-2-(2,5-difluorophenyl)-5-(2-(methylsulfonyl)pyrrolo[3,4-c]pyrazol-5(2H,4H,6H)-yl)-6-(trifluoromethyl)tetrahydro-2H-pyran-3-amine]
[1]
  Crystal form after transformation: Crystal form II
  Stability of crystal form (conclusion in words): good stability

## CS(=O)(=O)n1cc2c(n1)CN([C@@H]1C[C@H](N)[C@@H](c3cc(F)ccc3F)O[C@@H]1C(F)(F)F)C2 [Crystal form IV of Compound A, (2R,3S,5R,6S)-2-(2,5-difluorophenyl)-5-(2-(methylsulfonyl)-pyrrolo[3,4]pyrazol-5(2H,4H,6H)-yl)-6-(trifluoromethyl)tetrahydro-2H-pyran-3-amine]
[1]
  Crystal form after transformation: Crystal form IV
  Stability of crystal form (conclusion in words): good stability
[2]
  Relative stability of crystal forms (conclusion in words): the most stable crystal form at room temperature
[3]; 0 d
  Appearance: Off-white
  Moisture: 0.19%
  Purity of Compound A: 99.67%
[3]; [4]
  Appearance: Light yellow
  Moisture: 0.27%
  Purity of Compound A: 99.57%
[3]; [5]
  Appearance: Light yellow
  Moisture: 0.20%
  Purity of Compound A: 99.28%
[3]; [6]
  Appearance: Light yellow
  Moisture: 0.25%
  Purity of Compound A: 99.54%
[3]; [7]
  Appearance: Light yellow
  Moisture: 0.18%
  Purity of Compound A: 99.43%
[3]; [8]
  Appearance: Light yellow
  Moisture: 0.36%
  Purity of Compound A: 99.48%
[3]; [9]
  Appearance: Light yellow
  Moisture: 0.15%
  Purity of Compound A: 99.15%
[3]; Light exposure, unsealed, 10 d
  Appearance: Off-white
  Moisture: 0.32%
  Purity of Compound A: 99.51%
[3]; Light exposure, unsealed, 60 d
  Appearance: Off-white
  Moisture: 0.16%
  Purity of Compound A: 99.43%

## CS(=O)(=O)n1cc2c(n1)CN([C@@H]1C[C@H](N)[C@@H](c3cc(F)ccc3F)O[C@@H]1C(F)(F)F)C2 [Crystal form III, (2R,3S,5R,6S)-2-(2,5-difluorophenyl)-5-(2-(methylsulfonyl)pyrrolo[3,4-c]pyrazol-5(2H,4H,6H)-yl)-6-(trifluoromethyl)tetrahydro-2H-pyran-3-amine]
[1]
  Crystal form after transformation: Crystal form III
  Stability of crystal form (conclusion in words): good stability
